Experiments:
Assay type in all cases: in vivo
[1] = tested on: Digitaria ciliaris; assay: Test Example 5: herbicidal effect by foliage application, plastic box (symbol F); conditions: 320 g/ha, 3 weeks after application
Method in brief: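 After sowing into sterilized diluvial soil and growing two weeks under glass at 25° C. to 30° C., seedlings receive a uniform foliar spray of diluted emulsion. Damage is judged visually three weeks on.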

[2] = tested on: Echinochloa oryzacola Vasing.; assay: Test Example 2: herbicidal activity, application during weed generation in submerged conditions (symbol A); conditions: Table 23; application herbicide amount 320 g/ha; grade 0-5 by criteria of Test Example 1
Method in brief: (§1)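 Compound was applied as a water-diluted emulsion into the standing water of flooded pots (4 cm) once co-sown weeds reached one to two leaves. Greenhouse temperature was 25° C. to 30° C., soil was alluvial, and each species was rated visually after 3 weeks.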

[3] = tested on: Avena fatua; assay: Test Example 4: herbicidal effect by soil treatment (symbol I); conditions: application herbicide amount 320 g/ha
Method in brief: (§2)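 Seeds were sown in sterilized diluvial soil, covered with about 1.5 cm of soil, and the soil surface was sprayed with a water-diluted emulsion of the compound at a predetermined rate. Plants grew in a greenhouse at 25° C. to 30° C.; effects were scored visually 3 weeks after application.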

[4] = tested on: wheat; assay: Test Example 5: effect on crop by foliage application, plastic box (symbol e); conditions: 320 g/ha, 3 weeks after application
Method in brief: (§3)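 Foliage-application test plants come from spot sowing in sterilized diluvial soil under a soil layer of about 1.5 cm, grown at 25° C. to 30° C. in a greenhouse.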

[5] = tested on: Echinochloa oryzacola Vasing.; assay: Test Example 1: herbicidal activity, application before weed generation in submerged conditions (symbol A); conditions: application herbicide amount 320 g/ha
Method in brief: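 Weeds are sown into submerged alluvial soil alongside transplanted 2.5-leaf rice, and the compound, as an emulsion diluted to a set rate, is applied onto the water before emergence. Rating on the 0–5 herbicidal-ratio scale follows 3 weeks of greenhouse growth at 25–30 °C.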

[6] = tested on: transplanted rice plant; assay: Test Example 1: effect on crop, application before weed generation in submerged conditions (symbol a); conditions: application herbicide amount 320 g/ha
Method in brief: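 Alluvial soil pots flooded to 4 cm water, sown with Echinochloa oryzacola, Scirpus juncoides and Monochoria vaginalis, then transplanted with 2.5 leaf stage rice seedlings; pre-emergence application. Greenhouse 25° C. to 30° C.; scored 0–5 by herbicidal ratio 3 weeks after application.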

[7] = tested on: directly sowed rice plant; assay: Test Example 3: effect on crop by foliage application, Wagner pot (symbol b); conditions: application herbicide amount 320 g/ha
Method in brief: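 Greenhouse culture at 25–30 °C of seeded rice, Cyperus difformis, Leptochloa chinensis and Echinochloa crus-galli var. crus-galli, in alluvial soil held under 0.1–0.5 cm of water in a Wagner pot.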

[8] = tested on: Setaria viridis; assay: Test Example 4: herbicidal effect by soil treatment (symbol G); conditions: application herbicide amount 320 g/ha
Method in brief: as §2

[9] = tested on: corn; assay: Test Example 5: effect on crop by foliage application, plastic box (symbol c); conditions: 320 g/ha, 3 weeks after application
Method in brief: as §3

[10] = tested on: rapeseed; assay: Test Example 4: effect on crop by soil treatment (symbol g); conditions: application herbicide amount 320 g/ha
Method in brief: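 Steps: fill box with sterilized diluvial soil; sow seed spot-like; cover with ~1.5 cm soil; grow in greenhouse (25° C. to 30° C.).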

[11] = tested on: Monochoria vaginalis; assay: Test Example 2: herbicidal activity, application during weed generation in submerged conditions (symbol C); conditions: Table 23; application herbicide amount 320 g/ha; grade 0-5 by criteria of Test Example 1
Method in brief: as §1

Row | Structure (SMILES) | F: Digitaria ciliaris, herbicidal effect grade [1] | Herbicidal effect grade, A: Echinochloa oryzacola Vasing. [2] | I: Avena fatua, herbicidal effect grade [3] | e: wheat, effect on crop grade [4] | Herbicidal effect grade, A: Echinochloa oryzacola Vasing. [5] | Effect grade on crop, a: transplanted rice plant [6] | effect on crop b (directly sowed rice plant), grade 0-5 [7] | G: Setaria viridis, herbicidal effect grade [8] | c: corn, effect on crop grade [9] | g: rapeseed, effect on crop grade [10] | Herbicidal effect grade, C: Monochoria vaginalis [11]
1 | C=CC(=O)CC1CC(O)=C(c2c(C)cc(C)cc2C)C1=O (centres unmarked) [2-031] | 5 (Herbicidal ratio of 90% or more (almost completely withered)) | 4 (Herbicidal ratio of 70% or higher and lower than 90%) | 0 (Herbicidal ratio of 5% or lower (almost no effect)) | 0 (Herbicidal ratio of 5% or lower (almost no effect)) | 4 (Herbicidal ratio of 70% or higher and lower than 90%) | 5 (Herbicidal ratio of 90% or more (almost completely withered)) | 5 (Herbicidal ratio of 90% or more (almost completely withered)) | 5 (Herbicidal ratio of 90% or more (almost completely withered)) | 5 (Herbicidal ratio of 90% or more (almost completely withered)) | 3 (Herbicidal ratio of 40% or higher and lower than 70%) | 0 (Herbicidal ratio of 5% or lower (almost no effect))
2 | Cc1cc(C)c(C2=C(O)CC(CC(=O)c3ccc(F)cc3)C2=O)c(C)c1 (centres unmarked) [2-032] | 2 (Herbicidal ratio of 20% or higher and lower than 40%) | 4 (Herbicidal ratio of 70% or higher and lower than 90%) | 0 (Herbicidal ratio of 5% or lower (almost no effect)) | 1 (Herbicidal ratio of 5% or higher and lower than 20%) | 4 (Herbicidal ratio of 70% or higher and lower than 90%) | 5 (Herbicidal ratio of 90% or more (almost completely withered)) | 5 (Herbicidal ratio of 90% or more (almost completely withered)) | 5 (Herbicidal ratio of 90% or more (almost completely withered)) | 1 (Herbicidal ratio of 5% or higher and lower than 20%) | 1 (Herbicidal ratio of 5% or higher and lower than 20%) | 0 (Herbicidal ratio of 5% or lower (almost no effect))
3 | CCC(=O)CCC1CC(O)=C(c2c(C)cc(C)cc2C)C1=O (centres unmarked) [5-001] | 4 (Herbicidal ratio of 70% or higher and lower than 90%) | 0 (Herbicidal ratio of 5% or lower (almost no effect)) | 0 (Herbicidal ratio of 5% or lower (almost no effect)) | 0 (Herbicidal ratio of 5% or lower (almost no effect)) | 0 (Herbicidal ratio of 5% or lower (almost no effect)) | 0 (Herbicidal ratio of 5% or lower (almost no effect)) | 5 (Herbicidal ratio of 90% or more (almost completely withered)) | 0 (Herbicidal ratio of 5% or lower (almost no effect)) | 2 (Herbicidal ratio of 20% or higher and lower than 40%) | 0 (Herbicidal ratio of 5% or lower (almost no effect)) | 0 (Herbicidal ratio of 5% or lower (almost no effect))
4 | CCc1cc(Br)cc(C)c1C1=C(O)CC(CC(C)=NOC)C1=O (centres unmarked) [6-001] | 5 (Herbicidal ratio of 90% or more (almost completely withered)) | 4 (Herbicidal ratio of 70% or higher and lower than 90%) | 5 (Herbicidal ratio of 90% or more (almost completely withered)) | 5 (Herbicidal ratio of 90% or more (almost completely withered)) | 5 (Herbicidal ratio of 90% or more (almost completely withered)) | 5 (Herbicidal ratio of 90% or more (almost completely withered)) | 5 (Herbicidal ratio of 90% or more (almost completely withered)) | 5 (Herbicidal ratio of 90% or more (almost completely withered)) | 5 (Herbicidal ratio of 90% or more (almost completely withered)) | 2 (Herbicidal ratio of 20% or higher and lower than 40%) | 0 (Herbicidal ratio of 5% or lower (almost no effect))
5 | CCc1cc(Br)cc(C)c1C1=C(O)CC(C(C(=O)OC)C(C)=NOC)C1=O (centres unmarked) [6-002] | 5 (Herbicidal ratio of 90% or more (almost completely withered)) | 0 (Herbicidal ratio of 5% or lower (almost no effect)) | 0 (Herbicidal ratio of 5% or lower (almost no effect)) | 0 (Herbicidal ratio of 5% or lower (almost no effect)) | 3 (Herbicidal ratio of 40% or higher and lower than 70%) | 3 (Herbicidal ratio of 40% or higher and lower than 70%) | 5 (Herbicidal ratio of 90% or more (almost completely withered)) | 3 (Herbicidal ratio of 40% or higher and lower than 70%) | 5 (Herbicidal ratio of 90% or more (almost completely withered)) | 0 (Herbicidal ratio of 5% or lower (almost no effect)) | 0 (Herbicidal ratio of 5% or lower (almost no effect))
6 | CON=C(C)CC1CC(O)=C(c2c(C)cc(Br)cc2C)C1=O (centres unmarked) [6-003] | 5 (Herbicidal ratio of 90% or more (almost completely withered)) | 4 (Herbicidal ratio of 70% or higher and lower than 90%) | 3 (Herbicidal ratio of 40% or higher and lower than 70%) | 0 (Herbicidal ratio of 5% or lower (almost no effect)) | 5 (Herbicidal ratio of 90% or more (almost completely withered)) | 5 (Herbicidal ratio of 90% or more (almost completely withered)) | 5 (Herbicidal ratio of 90% or more (almost completely withered)) | 5 (Herbicidal ratio of 90% or more (almost completely withered)) | 5 (Herbicidal ratio of 90% or more (almost completely withered)) | 4 (Herbicidal ratio of 70% or higher and lower than 90%) | 3 (Herbicidal ratio of 40% or higher and lower than 70%)
7 | CON=C(C)CC1CC(O)=C(c2c(C)cc(-c3ccccc3)cc2C)C1=O (centres unmarked) [6-015] | 5 (Herbicidal ratio of 90% or more (almost completely withered)) | 5 (Herbicidal ratio of 90% or more (almost completely withered)) | 0 (Herbicidal ratio of 5% or lower (almost no effect)) | 0 (Herbicidal ratio of 5% or lower (almost no effect)) | 5 (Herbicidal ratio of 90% or more (almost completely withered)) | 5 (Herbicidal ratio of 90% or more (almost completely withered)) | 5 (Herbicidal ratio of 90% or more (almost completely withered)) | 5 (Herbicidal ratio of 90% or more (almost completely withered)) | 5 (Herbicidal ratio of 90% or more (almost completely withered)) | 4 (Herbicidal ratio of 70% or higher and lower than 90%) | 5 (Herbicidal ratio of 90% or more (almost completely withered))
